In patent publication EP4745135A1 (Gluetacs Therapeutics (Shanghai) Co., Ltd., priority 2023, dated 2025):

Key:
[1] = system: Human multiple myeloma peripheral blood B lymphocyte cell (RPMI-8226); assay: Tumor cell proliferation inhibition (CellTiter-Meiluncell luminescent cell viability assay); conditions: RPMI-8226, 96 h; for inhibition at 0.01 µM: read-out: Inhibition Rate at 10 nM (%); for inhibition at 0.5 µM: read-out: Inhibition Rate at 500 nM (%)
WEE1 = molecular target: T1, WEE1 (Homo sapiens, UniProt P30291+Q96SW2); assay: Western blot, degradation of substrate protein in hPBMCs; format: cell-based
T1 construct: effects of the compounds of the present disclosure on the expression of target proteins in cells; endogenous in cells; host or cells: human PBMCs (Milecell Biotechnologies)
T1 sequence (P30291 whole entry): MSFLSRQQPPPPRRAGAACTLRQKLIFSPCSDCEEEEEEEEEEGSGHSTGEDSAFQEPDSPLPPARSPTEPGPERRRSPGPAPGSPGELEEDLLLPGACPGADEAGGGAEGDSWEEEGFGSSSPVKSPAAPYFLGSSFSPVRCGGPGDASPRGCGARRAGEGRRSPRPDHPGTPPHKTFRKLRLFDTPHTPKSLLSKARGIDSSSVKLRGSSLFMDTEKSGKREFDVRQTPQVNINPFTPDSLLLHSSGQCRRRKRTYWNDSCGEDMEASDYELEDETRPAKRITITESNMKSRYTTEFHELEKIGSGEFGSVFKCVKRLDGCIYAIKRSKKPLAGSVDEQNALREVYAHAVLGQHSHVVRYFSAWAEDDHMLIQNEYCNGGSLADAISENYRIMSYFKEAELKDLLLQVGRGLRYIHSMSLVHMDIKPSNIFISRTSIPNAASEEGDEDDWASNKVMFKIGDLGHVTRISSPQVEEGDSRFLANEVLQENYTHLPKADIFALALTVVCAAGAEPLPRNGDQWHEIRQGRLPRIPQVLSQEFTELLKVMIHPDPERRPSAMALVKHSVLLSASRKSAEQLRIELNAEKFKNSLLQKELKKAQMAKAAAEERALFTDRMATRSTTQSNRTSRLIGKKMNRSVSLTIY
T1 sequence (Q96SW2 whole entry): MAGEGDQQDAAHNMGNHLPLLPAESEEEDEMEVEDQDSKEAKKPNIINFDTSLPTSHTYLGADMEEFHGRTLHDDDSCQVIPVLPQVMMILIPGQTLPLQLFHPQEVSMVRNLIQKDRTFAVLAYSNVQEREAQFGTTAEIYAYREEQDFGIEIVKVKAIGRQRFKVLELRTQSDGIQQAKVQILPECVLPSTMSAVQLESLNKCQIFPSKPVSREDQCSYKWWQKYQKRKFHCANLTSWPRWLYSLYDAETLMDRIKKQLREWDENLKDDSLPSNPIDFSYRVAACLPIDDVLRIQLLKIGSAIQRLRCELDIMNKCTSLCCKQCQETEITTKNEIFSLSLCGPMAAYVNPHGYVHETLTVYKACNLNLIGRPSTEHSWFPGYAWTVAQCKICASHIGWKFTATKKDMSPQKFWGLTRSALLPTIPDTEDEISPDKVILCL
T1 sequence (Q16531 whole entry partner): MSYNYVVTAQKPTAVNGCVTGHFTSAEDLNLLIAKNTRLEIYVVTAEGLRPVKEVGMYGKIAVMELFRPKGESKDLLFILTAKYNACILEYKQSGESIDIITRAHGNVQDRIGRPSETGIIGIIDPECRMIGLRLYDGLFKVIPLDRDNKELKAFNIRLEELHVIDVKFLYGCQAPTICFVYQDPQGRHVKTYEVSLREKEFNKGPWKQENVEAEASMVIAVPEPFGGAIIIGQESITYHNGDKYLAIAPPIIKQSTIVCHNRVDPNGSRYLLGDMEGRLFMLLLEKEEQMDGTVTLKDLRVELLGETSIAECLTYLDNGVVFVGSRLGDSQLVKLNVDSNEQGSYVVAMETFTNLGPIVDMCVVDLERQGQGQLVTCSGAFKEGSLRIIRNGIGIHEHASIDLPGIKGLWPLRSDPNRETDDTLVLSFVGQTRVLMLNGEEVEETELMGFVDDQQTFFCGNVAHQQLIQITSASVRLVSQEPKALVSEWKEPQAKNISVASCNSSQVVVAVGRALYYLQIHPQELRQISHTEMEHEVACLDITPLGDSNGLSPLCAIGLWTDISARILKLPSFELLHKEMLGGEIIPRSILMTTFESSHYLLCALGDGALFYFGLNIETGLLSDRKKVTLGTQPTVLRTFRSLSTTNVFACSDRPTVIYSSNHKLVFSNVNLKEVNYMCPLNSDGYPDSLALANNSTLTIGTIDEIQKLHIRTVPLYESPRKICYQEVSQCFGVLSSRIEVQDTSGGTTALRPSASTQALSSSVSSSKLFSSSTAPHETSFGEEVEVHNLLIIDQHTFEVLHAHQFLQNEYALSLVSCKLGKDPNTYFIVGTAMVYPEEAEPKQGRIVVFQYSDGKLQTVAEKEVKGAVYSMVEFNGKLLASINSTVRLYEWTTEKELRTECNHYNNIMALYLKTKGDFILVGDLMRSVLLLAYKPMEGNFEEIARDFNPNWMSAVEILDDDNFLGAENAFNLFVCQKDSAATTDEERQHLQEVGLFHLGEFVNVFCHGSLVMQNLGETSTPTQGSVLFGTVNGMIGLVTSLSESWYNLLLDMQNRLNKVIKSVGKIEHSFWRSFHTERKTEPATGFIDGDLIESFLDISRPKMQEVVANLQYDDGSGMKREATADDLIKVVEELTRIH

IKZF2 = molecular target: T2, IKZF2 (Homo sapiens, UniProt Q96SW2+Q9UKS7); assay: as above; format: cell-based
T2 construct: effects of the compounds of the present disclosure on the expression of target proteins in cells; endogenous in cells; host or cells: human PBMCs (Milecell Biotechnologies)
T2 sequence (Q9UKS7 whole entry): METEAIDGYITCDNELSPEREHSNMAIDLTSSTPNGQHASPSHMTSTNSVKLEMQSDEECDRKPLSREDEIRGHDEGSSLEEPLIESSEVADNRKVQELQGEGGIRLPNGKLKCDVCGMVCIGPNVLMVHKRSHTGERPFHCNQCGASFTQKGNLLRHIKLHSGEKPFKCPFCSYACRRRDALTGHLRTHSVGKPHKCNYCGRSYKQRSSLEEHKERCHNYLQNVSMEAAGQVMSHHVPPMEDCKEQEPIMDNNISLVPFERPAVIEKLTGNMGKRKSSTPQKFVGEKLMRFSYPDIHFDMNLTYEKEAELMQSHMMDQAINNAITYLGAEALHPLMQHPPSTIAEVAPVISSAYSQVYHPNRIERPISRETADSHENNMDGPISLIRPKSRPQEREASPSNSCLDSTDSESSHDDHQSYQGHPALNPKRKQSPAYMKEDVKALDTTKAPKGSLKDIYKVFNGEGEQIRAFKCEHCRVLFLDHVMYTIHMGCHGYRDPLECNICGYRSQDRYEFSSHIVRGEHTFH
T2 sequence (Q96SW2 whole entry): as the sequence (Q96SW2 whole entry) above
T2 sequence (Q16531 whole entry partner): as the sequence (Q16531 whole entry partner) above

IKZF1 = molecular target: T3, IKZF1 (Homo sapiens, UniProt Q13422+Q96SW2); assay: as above; format: cell-based
T3 construct: effects of the compounds of the present disclosure on the expression of target proteins in cells; endogenous in cells; host or cells: human PBMCs (Milecell Biotechnologies)
T3 sequence (Q13422 whole entry): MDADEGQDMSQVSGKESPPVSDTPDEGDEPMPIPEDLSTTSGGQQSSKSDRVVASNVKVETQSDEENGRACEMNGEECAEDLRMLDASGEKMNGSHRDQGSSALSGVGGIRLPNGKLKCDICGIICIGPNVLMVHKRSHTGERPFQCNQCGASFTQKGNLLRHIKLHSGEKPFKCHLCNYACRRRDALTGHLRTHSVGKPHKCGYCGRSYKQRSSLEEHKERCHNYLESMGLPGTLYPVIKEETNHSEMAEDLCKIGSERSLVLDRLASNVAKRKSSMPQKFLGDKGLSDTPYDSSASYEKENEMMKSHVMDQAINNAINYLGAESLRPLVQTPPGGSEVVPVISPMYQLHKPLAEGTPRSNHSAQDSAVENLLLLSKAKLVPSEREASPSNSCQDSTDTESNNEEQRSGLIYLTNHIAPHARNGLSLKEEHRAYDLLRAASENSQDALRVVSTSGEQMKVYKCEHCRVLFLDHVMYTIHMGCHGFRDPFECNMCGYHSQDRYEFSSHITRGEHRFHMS
T3 sequence (Q96SW2 whole entry): as the sequence (Q96SW2 whole entry) above
T3 sequence (Q16531 whole entry partner): as the sequence (Q16531 whole entry partner) above

IKZF3 = molecular target: T4, IKZF3 (Homo sapiens, UniProt Q96SW2+Q9UKT9); assay: as above; format: cell-based
T4 construct: effects of the compounds of the present disclosure on the expression of target proteins in cells; endogenous in cells; host or cells: human PBMCs (Milecell Biotechnologies)
T4 sequence (Q9UKT9 whole entry): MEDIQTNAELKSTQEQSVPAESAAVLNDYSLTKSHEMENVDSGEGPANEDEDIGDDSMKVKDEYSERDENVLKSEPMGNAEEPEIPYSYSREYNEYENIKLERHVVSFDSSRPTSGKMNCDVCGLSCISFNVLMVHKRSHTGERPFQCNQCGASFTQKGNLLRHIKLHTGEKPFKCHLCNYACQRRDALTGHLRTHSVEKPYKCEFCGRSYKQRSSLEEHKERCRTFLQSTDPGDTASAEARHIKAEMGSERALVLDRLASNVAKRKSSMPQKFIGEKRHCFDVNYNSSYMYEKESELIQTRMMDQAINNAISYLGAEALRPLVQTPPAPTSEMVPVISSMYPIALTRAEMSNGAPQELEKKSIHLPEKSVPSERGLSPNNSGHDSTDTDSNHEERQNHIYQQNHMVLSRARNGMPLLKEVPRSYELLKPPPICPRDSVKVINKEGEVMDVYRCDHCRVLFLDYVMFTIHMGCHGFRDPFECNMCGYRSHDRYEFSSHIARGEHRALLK
T4 sequence (Q96SW2 whole entry): as the sequence (Q96SW2 whole entry) above
T4 sequence (Q16531 whole entry partner): as the sequence (Q16531 whole entry partner) above

CK1α = molecular target: T5, CK1α (Homo sapiens, UniProt P48729+Q96SW2); assay: as above; format: cell-based
T5 construct: effects of the compounds of the present disclosure on the expression of target proteins in cells; endogenous in cells; host or cells: human PBMCs (Milecell Biotechnologies)
T5 sequence (P48729 whole entry): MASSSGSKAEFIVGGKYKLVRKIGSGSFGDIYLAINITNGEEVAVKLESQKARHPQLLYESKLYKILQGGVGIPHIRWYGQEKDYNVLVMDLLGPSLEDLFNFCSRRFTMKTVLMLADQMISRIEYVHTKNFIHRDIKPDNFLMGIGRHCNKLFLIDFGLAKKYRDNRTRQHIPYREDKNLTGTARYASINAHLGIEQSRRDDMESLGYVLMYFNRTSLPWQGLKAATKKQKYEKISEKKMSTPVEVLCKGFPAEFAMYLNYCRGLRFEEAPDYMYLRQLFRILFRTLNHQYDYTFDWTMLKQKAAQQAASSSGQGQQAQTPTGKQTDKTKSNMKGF
T5 sequence (Q96SW2 whole entry): as the sequence (Q96SW2 whole entry) above
T5 sequence (Q16531 whole entry partner): as the sequence (Q16531 whole entry partner) above

[2] = system: Human myeloid monocytic leukemia cell (MV-4-11); assay: Tumor cell proliferation inhibition (CellTiter-Meiluncell luminescent cell viability assay); conditions: MV4-11, 96 h; for inhibition at 0.01 µM: read-out: Inhibition Rate at 10 nM (%); for inhibition at 0.5 µM: read-out: Inhibition Rate at 500 nM (%)
[3] = system: Human acute T lymphocytic leukemia cell (Molt4); assay: as above; conditions: MOLT-4, 96 h; for inhibition at 0.01 µM: read-out: Inhibition Rate at 10 nM (%); for inhibition at 0.5 µM: read-out: Inhibition Rate at 500 nM (%)
[4] = molecular target: T6, human Cereblon WT GST-tagged protein (Homo sapiens, UniProt Q96SW2); assay: CRBN-binding affinity, HTRF (CEREBLON BINDING kit); conditions: for inhibition at 0.5 µM: read-out: Inhibition Rate at 0.5 µM (%); for inhibition at 2 µM: read-out: Inhibition Rate at 2 µM (%)
T6 construct: purchased CISBIO 64BDCRBNPEH
T6 sequence (Q96SW2 whole entry): as the sequence (Q96SW2 whole entry) above

[5] = system: Human multiple myeloma cell (MM.1S); assay: Tumor cell proliferation inhibition (CellTiter-Meiluncell luminescent cell viability assay); conditions: Homo sapiens, MM1.S, 96 h; for inhibition at 0.01 µM: read-out: Inhibition Rate at 10 nM (%); for inhibition at 0.5 µM: read-out: Inhibition Rate at 500 nM (%)
GSPT1 = assay: Western blot, degradation of substrate protein in hPBMCs; format: cell-based, Human
[6] = Western blot, 24 hours of compound treatment, compounds tested at 50 nM and 500 nM (concentration for the table not stated)
[7] = 24 hours treatment, compounds at 50 nM and 500 nM (concentration behind the class not stated)

Compound	inhibition at 0.01 µM [1] [%]	inhibition at 0.5 µM [1] [%]	Wee1 substrate protein remaining % (WEE1; [6])	IKZF2 substrate protein remaining % (IKZF2; [6])	IKZF 1 substrate protein remaining % (IKZF1; [6])	IKZF3 substrate protein remaining % (IKZF3; [6])	CK1α substrate protein remaining % (CK1α; [6])	inhibition at 0.01 µM [2] [%]	inhibition at 0.5 µM [2] [%]	inhibition at 0.01 µM [3] [%]	inhibition at 0.5 µM [3] [%]	inhibition at 0.5 µM [4] [%]	inhibition at 2 µM [4] [%]	inhibition at 0.01 µM [5] [%]	inhibition at 0.5 µM [5] [%]	GSPT1 substrate protein remaining % (GSPT1; [6])	other results
O=C1CCC(N2Cc3cc(CN4CCN(c5cccc(Br)c5)CC4)ccc3C2=S)C(=O)N1 (stereo not drawn) [GT-08238, 3-(5-((4-(3-bromophenyl)piperazin-1-yl)methyl)-1-thioxoisoindolin-2-yl)piperidine-2,6-dione]	20 to 30	50 to 60	B (80%< substrate protein remaining %≤ 100%)	B (80%< substrate protein remaining %≤ 100%)	B (80%< substrate protein remaining %≤ 100%)	B (80%< substrate protein remaining %≤ 100%)	B (80%< substrate protein remaining %≤ 100%)	5 to 10	80 to 100	30 to 40	80 to 100	53 to 60	80 to 100	70 to 80	70 to 80	A (0% ≤ substrate protein remaining % ≤ 80%)	–
O=C1CCC(N2Cc3cc(CN4CCN(c5cc(Cl)cc(Cl)c5)CC4)ccc3C2=S)C(=O)N1 (stereo not drawn) [GT-08624, 3-(5-((4-(3,5-dichlorophenyl)piperazin-1-yl)methyl)-1-thioxoisoindolin-2-yl)piperidine-2,6-dione]	10 to 20	60 to 70	B (80%< substrate protein remaining %≤ 100%)	B (80%< substrate protein remaining %≤ 100%)	B (80%< substrate protein remaining %≤ 100%)	B (80%< substrate protein remaining %≤ 100%)	B (80%< substrate protein remaining %≤ 100%)	18 to 25	80 to 100	–	–	30 to 40	80 to 100	20 to 30	80 to 100	A (0% ≤ substrate protein remaining % ≤ 80%)	–
O=C1CCC(N2Cc3c(CN4CCN(C(c5ccc(F)cc5)c5ccc(F)cc5)CC4)cccc3C2=S)C(=O)N1 (stereo not drawn) [GT-08202, 3-(4-((4-(bis(4-fluorophenyl)methyl)piperazin-1-yl)methyl)-1-thioxoisoindolin-2-yl)piperidine-2,6-dione]	20 to 30	40 to 50	A (0% ≤ substrate protein remaining % ≤ 80%)	A (0% ≤ substrate protein remaining % ≤ 80%)	A (0% ≤ substrate protein remaining % ≤ 80%)	A (0% ≤ substrate protein remaining % ≤ 80%)	B (80%< substrate protein remaining %≤ 100%)	30 to 40	40 to 60	–	–	30 to 40	60 to 80	–	–	A (0% ≤ substrate protein remaining % ≤ 80%)	–
N#Cc1ccc(N2CCN(Cc3ccc(COc4cccc5c4CN([C@H]4CCC(=O)NC4=O)C5=S)cc3)CC2)c(F)c1 [GT-05957, (S)-4-(4-(4-(((2-(2,6-dioxopiperidin-3-yl)-1-thioxoisoindolin-4-yl)oxy)methyl)benzyl)piperazin-1-yl)-3-fluorobenzonitrile]	50 to 60	60 to 70	–	–	–	–	–	25 to 30	40 to 60	–	–	–	–	80 to 100	80 to 100	–	Wee1 substrate protein remaining % (WEE1; [7]): B (80%< substrate protein remaining %≤ 100%); IKZF2 substrate protein remaining % (IKZF2; [7]): A (0% ≤ substrate protein remaining % ≤ 80%); IKZF 1 substrate protein remaining % (IKZF1; [7]): A (0% ≤ substrate protein remaining % ≤ 80%); IKZF3 substrate protein remaining % (IKZF3; [7]): A (0% ≤ substrate protein remaining % ≤ 80%); CK1α substrate protein remaining % (CK1α; [7]): B (80%< substrate protein remaining %≤ 100%); IC50 ([4]; CRBN binding, HTRF, 3 hours at room temperature, read-out: HTRF IC50): 100 to 500 nM; GSPT1 substrate protein remaining % (GSPT1; [7]): A (0% ≤ substrate protein remaining % ≤ 80%)
O=C1CCC(N2Cc3cc(CN4CCC(c5cccc(Br)c5)CC4)ccc3C2=S)C(=O)N1 (stereo not drawn) [GT-08617, 3-(5-((4-(3-bromophenyl)piperidin-1-yl)methyl)-1-thioxoisoindolin-2-yl)piperidine-2,6-dione]	10 to 20	50 to 60	B (80%< substrate protein remaining %≤ 100%)	B (80%< substrate protein remaining %≤ 100%)	B (80%< substrate protein remaining %≤ 100%)	B (80%< substrate protein remaining %≤ 100%)	B (80%< substrate protein remaining %≤ 100%)	5 to 10	80 to 100	20 to 30	80 to 100	40 to 53	80 to 100	30 to 40	80 to 100	A (0% ≤ substrate protein remaining % ≤ 80%)	–
Cc1cccc(N2CCN(Cc3ccc4c(c3)CN(C3CCC(=O)NC3=O)C4=S)CC2)c1 (stereo not drawn) [GT-08602, 3-(1-thioxo-5-((4-(m-tolyl)piperazin-1-yl)methyl)isoindolin-2-yl)piperidine-2,6-dione]	10 to 20	70 to 80	A (0% ≤ substrate protein remaining % ≤ 80%)	B (80%< substrate protein remaining %≤ 100%)	B (80%< substrate protein remaining %≤ 100%)	B (80%< substrate protein remaining %≤ 100%)	B (80%< substrate protein remaining %≤ 100%)	18 to 25	80 to 100	-5 to 0	80 to 100	40 to 53	80 to 100	10 to 20	80 to 100	A (0% ≤ substrate protein remaining % ≤ 80%)	–
O=C1CCC(N2Cc3c(CN4CCN(C(=O)C5=C(c6ccc(F)cc6)CCCC5)CC4)cccc3C2=S)C(=O)N1 (stereo not drawn) [GT-08294, 3-(4-((4-(4'-fluoro-3,4,5,6-tetrahydro-[1,1'-biphenyl]-2-carbonyl)piperazin-1-yl)methyl)-1-thioxoisoindolin-2-yl)piperidine-2,6-dione]	20 to 30	40 to 50	B (80%< substrate protein remaining %≤ 100%)	B (80%< substrate protein remaining %≤ 100%)	B (80%< substrate protein remaining %≤ 100%)	B (80%< substrate protein remaining %≤ 100%)	A (0% ≤ substrate protein remaining % ≤ 80%)	40 to 60	60 to 80	–	–	30 to 40	80 to 100	–	–	B (80%< substrate protein remaining %≤ 100%)	–
